Patent US3983239A, “Hexahydro-γ-carboline derivatives and their salts” (priority 1974, dated 1976)

Test system: methamphetamine-induced stereotypy
Assay: Potentiation of methamphetamine-induced stereotypy
Assay type: in vivo, male Wistar HLA rats
Parameters: key: ---: Marked antagonism; --: Moderate antagonism; -: Slight antagonism; 0: No interaction; +: Slight potentiation; ++: Moderate potentiation; +++: Marked potentiation
Conditions: methamphetamine 2 mg/kg i.p.
Description: 1. Potentiation of methamphetamine-induced stereotypy
This test was carried out by a modified method of R. T. Naylor (Life Sci., Vol. 10, page 909, 1971).
To male Wistar HLA rats, weighing 200 to 250 g (each group: 6 rats), were intraperitoneally administered the compounds to be tested. After 20 minutes, methamphetamine (2 mg/kg) was intraperitoneally administered to the test animals, and then the appeared stereotypy was observed. The effects of the test compounds were evaluated by the intensity of the stereotypy and the termination thereof.

Row | Compound | Stereotypy Intensity (1.0 mg/kg i.p.) | Stereotypy Termination (1.0 mg/kg i.p.) | Stereotypy Intensity (2.0 mg/kg i.p.) | Stereotypy Termination (2.0 mg/kg i.p.) | Stereotypy Intensity (5.0 mg/kg i.p.) | Stereotypy Termination (5.0 mg/kg i.p.) | Stereotypy Intensity (10.0 mg/kg i.p.) | Stereotypy Termination (10.0 mg/kg i.p.) | Stereotypy Intensity (0.1 mg/kg i.p.) | Stereotypy Termination (0.1 mg/kg i.p.) | Stereotypy Intensity (0.2 mg/kg i.p.) | Stereotypy Termination (0.2 mg/kg i.p.) | Stereotypy Intensity (0.5 mg/kg i.p.) | Stereotypy Termination (0.5 mg/kg i.p.)
1 | COc1ccc2c(c1)C1CN(CCCC(=O)c3ccc(F)cc3)CCC1N2.Cl.Cl (centres unmarked) [compound 4, 8-Methoxy-2-[γ-(p-fluorobenzoyl)propyl]-2,3,4,4a,5,9b-hexahydro-1H-pyrido[4,3-b]indole dihydrochloride] | 0 | 0 | 0 | 0 | 0 | 0 | -- | 0 |  |  |  |  |  | 
2 | CCc1ccc2c(c1)C1CN(CCCC(=O)c3ccc(F)cc3)CCC1N2.Cl.Cl (centres unmarked) [B, 8-Ethyl-2-[γ-(p-fluorobenzoyl)propyl]-2,3,4,4a,5,9b-hexahydro-1H-pyrido[4,3-b]indole dihydrochloride] |  |  | + | + | +++ | +++ | +++ | +++ |  |  |  |  |  | 
3 | CCN1c2ccc(C)cc2C2CN(CCCC(=O)c3ccc(F)cc3)CCC21.Cl.Cl (centres unmarked) [D, 5-Ethyl-8-methyl-2-[γ-(p-fluorobenzoyl)propyl]-2,3,4,4a,5,9b-hexahydro-1H-pyrido[4,3-b]indole dihydrochloride] | 0 | 0 | 0 | 0 | + | ++ | +++ | +++ |  |  |  |  |  | 
4 | O=C(CCCN1CCC(O)(c2ccc(Cl)cc2)CC1)c1ccc(F)cc1 [Haloperidol] | --- | -- |  |  |  |  |  |  | 0 | - | - | -- | -- - | --
5 | Cl.Cl.O=C(CCCN1CCC2Nc3ccc(F)cc3C2C1)c1ccc(F)cc1 (centres unmarked) [compound 3, 8-Fluoro-2-[γ-(p-fluorobenzoyl)propyl]-2,3,4,4a,5,9b-hexahydro-1H-pyrido[4,3-b]indole dihydrochloride] | 0 | 0 | 0 | 0 | - | - | -- | -- |  |  |  |  |  | 
6 | Cc1ccc2[nH]c3c(c2c1)CN(CCCC(=O)c1ccc(F)cc1)CC3.Cl [compound 1, 8-Methyl-2-[γ-(p-fluorobenzoyl)propyl]-2,3,4,5-tetrahydro-1H-pyrido[4,3-b]indole hydrochloride] | 0 | 0 | 0 | 0 | 0 | 0 | 0 | 0 |  |  |  |  |  | 
7 | Cc1ccc2c(c1)C1CN(CCCC(=O)c3ccc(F)cc3)CCC1N2C.Cl.Cl (centres unmarked) [C, 5,8-Dimethyl-2-[γ-(p-fluorobenzoyl)propyl]-2,3,4,4a,5,9b-hexahydro-1H-pyrido[4,3-b]indole dihydrochloride] | 0 | 0 | 0 | 0 | ++ | ++ | ++ | +++ |  |  |  |  |  | 
8 | Cl.Cl.O=C(CCCN1CCC2Nc3ccccc3C2C1)c1ccc(F)cc1 (centres unmarked) [compound 2, 2-[γ-(p-Fluorobenzoyl)propyl]-2,3,4,4a,5,9b-hexahydro-1H-pyrido[4,3-b]indole dihydrochloride] | 0 | 0 | 0 | 0 | 0 | 0 | - | 0 |  |  |  |  |  | 
